{"source": "patent US11584744B2", "about": "(UNIVERSITY OF WASHINGTON, priority 2017, dated 2023)", "key": {"[1]": {"conditions": "value printed with (49), probably a literature reference; cited from earlier work"}, "[2]": {"tested_on": "S. aureus MSSA (ATCC 19636)", "assay": "MIC susceptibility testing", "type": "cell-based", "conditions": "Staphylococcus aureus, read-out: S. aureus MSSA (ATCC 19636) MIC", "how_it_was_run": "(§1)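 CLSI broth microdilution in triplicate, 5×10^5 CFU/mL final, ≤0.5% DMSO; MHB for S. aureus, CA-MHB for E. coli and E. faecium, CA-MHB plus 3% laked horse blood for S. pyogenes (5% CO2).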"}, "[3]": {"tested_on": "S. pneumoniae (ATCC 49619)", "assay": "MIC susceptibility testing", "type": "cell-based", "conditions": "Streptococcus pneumoniae, ATCC49619, 18 h, read-out: S. pneumoniae (ATCC 49619) MIC"}, "[4]": {"tested_on": "S. epidermidis (ATCC 49134)", "assay": "MIC susceptibility testing", "type": "cell-based", "conditions": "Staphylococcus epidermidis, ATCC49134, read-out: S. epidermidis (ATCC 49134) MIC"}, "[5]": {"tested_on": "S. aureus MRSA (ATCC 43300)", "assay": "MIC susceptibility testing", "type": "cell-based", "conditions": "Staphylococcus aureus, read-out: S. aureus MRSA (ATCC 43300) MIC", "how_it_was_run": "as §1"}, "[6]": {"tested_on": "E. faecium (ATCC 19434)", "assay": "MIC susceptibility testing", "type": "cell-based", "conditions": "Enterococcus faecium, ATCC19434, read-out: E. faecium (ATCC 19434) MIC", "how_it_was_run": "as §1"}, "[7]": {"tested_on": "S. aureus VISA (ATCC 700699)", "assay": "MIC susceptibility testing", "type": "cell-based", "conditions": "Staphylococcus aureus, read-out: S. aureus VISA (ATCC 700699) MIC", "how_it_was_run": "as §1"}, "[8]": {"tested_on": "E. faecalis (ATCC 29212)", "assay": "MIC susceptibility testing", "type": "cell-based", "conditions": "Enterococcus faecalis, ATCC29212, read-out: E. faecalis (ATCC 29212) MIC"}, "[9]": {"tested_on": "S. epidermidis (ATCC 12228)", "assay": "MIC susceptibility testing", "type": "cell-based", "conditions": "Staphylococcus epidermidis, ATCC12228, read-out: S. epidermidis (ATCC 12228) MIC"}, "[10]": {"tested_on": "S. pyogenes (ATCC 19615)", "assay": "MIC susceptibility testing", "type": "cell-based", "conditions": "Streptococcus pyogenes, ATCC19615, 18 h, read-out: S. pyogenes (ATCC 19615) MIC"}, "[11]": {"biological_target": "recombinant S. aureus MetRS enzyme (Staphylococcus aureus, UniProt A0A0H2XID2)", "sequence (A0A0H2XID2 2-657)": "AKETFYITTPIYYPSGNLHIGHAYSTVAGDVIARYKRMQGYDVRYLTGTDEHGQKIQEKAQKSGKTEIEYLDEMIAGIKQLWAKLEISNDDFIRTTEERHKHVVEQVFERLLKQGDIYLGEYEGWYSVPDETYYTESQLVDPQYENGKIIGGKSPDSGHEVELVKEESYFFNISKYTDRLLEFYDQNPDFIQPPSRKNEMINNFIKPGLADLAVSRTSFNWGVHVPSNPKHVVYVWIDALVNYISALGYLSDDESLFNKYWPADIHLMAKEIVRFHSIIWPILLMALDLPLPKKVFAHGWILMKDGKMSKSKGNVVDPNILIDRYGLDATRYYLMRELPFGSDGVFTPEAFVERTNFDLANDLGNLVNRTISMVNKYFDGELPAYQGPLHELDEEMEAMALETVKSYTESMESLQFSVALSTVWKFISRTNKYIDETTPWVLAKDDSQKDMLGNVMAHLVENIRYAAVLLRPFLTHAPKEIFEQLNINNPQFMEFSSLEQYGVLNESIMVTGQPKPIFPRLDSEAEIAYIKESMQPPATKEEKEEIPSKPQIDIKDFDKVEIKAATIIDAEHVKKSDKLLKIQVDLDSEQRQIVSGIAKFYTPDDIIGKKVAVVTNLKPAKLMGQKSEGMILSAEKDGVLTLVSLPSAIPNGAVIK", "assay": "Inhibition of SaMetRS, ATP depletion assay", "type": "biochemical", "conditions": "recombinant enzyme; lower limit of detection 0.025 μM; read-out: MetRS S. aureus (enzyme) IC50", "how_it_was_run": "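N-terminal 6-His S. aureus MetRS (25 nM) was pre-incubated 15 min at room temperature with compound, 400 μg/mL E. coli tRNA and pyrophosphatase in HEPES-KOH pH 7.9, 2% DMSO. Reaction started with 150 nM ATP plus 20 μM L-methionine, ran 120 min; remaining ATP read by Kinase-Glo luminescence, IC50 by sigmoidal nonlinear regression.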"}, "[12]": {"conditions": "Data from Drugbank; cited from earlier work"}, "[13]": {"tested_on": "S. aureus (ATCC 29213)", "assay": "MBC determinations (with MIC)", "type": "cell-based", "conditions": "Staphylococcus aureus, ATCC29213", "procedure": "Maximum DMSO concentrations were 0.5%. […] Each experiment's inoculum was serially diluted and plated on TSA to count competent cells. Cultures were incubated at 37° C. for at least 20 h and plated on TSA for CFU determination.\nMIC/MBC: Measurements of minimum bactericidal concentrations (MBCs) were done with the S. aureus strain ATCC 29213 (Table 5)."}, "[14]": {"tested_on": "S. aureus", "assay": "Serum shift assays (MIC with and without 50% human serum)", "type": "cell-based, Staphylococcus aureus", "conditions": "for MIC: Staphylococcus aureus", "procedure": "Serum shift assays: To assess the role of protein binding on compound susceptibility, MIC determinations were performed in triplicate in the presence and absence of 50% human serum. Serial threefold dilutions of 2× compound were generated in MHB and aliquoted onto 96 well plates with a DMSO limit of 0.5%. Bacteria were adjusted to 1*10^8 CFUs/mL in MHB, then further diluted 1:100 in MHB and 100% heat deactivated filter sterilized pooled human serum. Fifty microliters were added to each well of the corresponding plates, and the plates were incubated at 37° C. for ˜20 h. The lowest concentration causing ≥90% growth inhibition was recorded as the MIC."}, "[15]": {"assay": "Cytotoxicity testing on mammalian cells (AlamarBlue, 48 hours)", "type": "cell-based", "conditions": "human", "procedure": "Cytotoxicity testing on mammalian cells: Compounds were assayed for cytotoxicity against CRL-8155 (human lymphoblasts) and HepG2 cells (human hepatocellular carcinoma). Cells were exposed to serial dilutions of compounds for 48 hours and toxicity was quantified using AlamarBlue (ThermoFisher Scientific, Waltham, Mass.). Assays were performed in quadruplicate and EC50 values were calculated with non-linear regression methods using software by the Collaborative Drug Database (Burlingame, Calif. www.collaborativedrug.com)"}, "[16]": {"tested_on": "S. aureus MSSA (ATCC 29213)", "assay": "MIC susceptibility testing", "type": "cell-based, Staphylococcus aureus", "conditions": "Staphylococcus aureus, 18 h, read-out: S. aureus MSSA (ATCC 29213) MIC"}, "[17]": {"tested_on": "S. aureus MRSA (ATCC 33591)", "assay": "MIC susceptibility testing", "type": "cell-based, Staphylococcus aureus", "conditions": "Staphylococcus aureus, read-out: S. aureus MRSA (ATCC 33591) MIC", "how_it_was_run": "as §1"}, "[18]": {"tested_on": "E. faecium VRE (ATCC 51559)", "assay": "MIC susceptibility testing", "type": "cell-based, Enterococcus faecium", "conditions": "Enterococcus faecium, read-out: E. faecium VRE (ATCC 51559) MIC", "how_it_was_run": "as §1"}}, "note": "Like-named read-outs stand apart in the source and are kept apart here. Marks after values point to notes of the source that are not given here."}
{"smiles": "CN[C@H](CC(C)C)C(=O)N[C@H]1C(=O)N[C@@H](CC(N)=O)C(=O)N[C@H]2C(=O)N[C@H]3C(=O)N[C@H](C(=O)N[C@H](C(=O)O)c4cc(O)cc(O)c4-c4cc3ccc4O)[C@H](O)c3ccc(c(Cl)c3)Oc3cc2cc(c3O[C@@H]2O[C@H](CO)[C@@H](O)[C@H](O)[C@H]2O[C@H]2C[C@](C)(N)[C@H](O)[C@H](C)O2)Oc2ccc(cc2Cl)[C@H]1O", "note": "[VAN, vancomycin]", "values": [{"measurement": "% binding to mouse plasma", "setting": "[1]", "result": "25 (49) %"}, {"measurement": "MIC", "setting": "[2]", "result": 1.25, "unit": "µg/mL"}, {"measurement": "MIC", "setting": "[3]", "result": 0.313, "unit": "µg/mL"}, {"measurement": "MIC", "setting": "[4]", "result": 2.5, "unit": "µg/mL"}, {"measurement": "MIC", "setting": "[5]", "result": 1.25, "unit": "µg/mL"}, {"measurement": "MIC", "setting": "[6]", "result": 0.625, "unit": "µg/mL"}, {"measurement": "MIC", "setting": "[7]", "result": 10, "unit": "µg/mL"}, {"measurement": "MIC", "setting": "[8]", "result": 5, "unit": "µg/mL"}, {"measurement": "MIC", "setting": "[9]", "result": 2.5, "unit": "µg/mL"}, {"measurement": "MIC", "setting": "[10]", "result": 0.625, "unit": "µg/mL"}, {"measurement": "IC50", "setting": "[11]", "result": "> 10", "unit": "µM"}, {"measurement": "% binding to human plasma", "setting": "[12]", "result": "55* %"}, {"measurement": "MBC", "setting": "[13]", "result": 5, "unit": "µg/mL"}, {"measurement": "MIC", "setting": "[13]", "result": 1.25, "unit": "µg/mL"}, {"measurement": "Avg MIC ± SEM (+50% serum)", "setting": "[14]; 50% human serum", "result": "1.213 ± 0.12", "unit": "µg/mL"}, {"measurement": "MIC", "setting": "[14]; read-out: Avg MIC ± SEM (+50% serum), 50% human serum", "result": 1.21, "unit": "µg/mL"}, {"measurement": "MIC", "setting": "[14]; read-out: Avg MIC ± SEM (no serum), no serum", "result": "0.714 ± 0.05", "unit": "µg/mL"}, {"measurement": "CC50 at 48 h", "setting": "[15]; CRL-8155 cells (human lymphoblasts), read-out: Mamm. cells (CRL8155) CC50", "result": "> 145", "unit": "µg/mL"}, {"measurement": "CC50 at 48 h", "setting": "[15]; HepG2 cells (human hepatocellular carcinoma), read-out: Mamm. cells (HepG2) CC50", "result": "> 145", "unit": "µg/mL"}, {"measurement": "MIC", "setting": "[16]", "result": 1.25, "unit": "µg/mL"}, {"measurement": "MIC", "setting": "[17]", "result": 1.25, "unit": "µg/mL"}, {"measurement": "MIC", "setting": "[18]", "result": "> 10", "unit": "µg/mL"}]}
